Calls of active or inactive are those of the source. No cut-off for these calls is given here.
Assays:
HUVEC [1] = test: Antiproliferative against HUVEC cells assessed as cell viability after 96 hrs by MTT assay; assay type: functional, cell-based; conditions: Homo sapiens
A549 = test: Antiproliferative against human A549 cells assessed as cell viability up to 1000 nM after 96 hrs by MTT assay; assay type: functional
[2] = Antiproliferative against human Bel7402 cells assessed as cell viability up to 1000 nM after 96 hrs by MTT assay; assay type: functional, Bel-7402
HepG2 [3] = test: Antiproliferative against human HepG2 cells assessed as cell viability up to 1000 nM after 96 hrs by MTT assay; assay type: functional
MCF7 = test: Antiproliferative against human MCF7 cells assessed as cell viability up to 1000 nM after 96 hrs by MTT assay; assay type: functional
[4] = biological target: Methionine aminopeptidase 2 (Homo sapiens) (UniProt P50579); test: Binding affinity to MetAP2 in HUVEC at 0.1 uM by Western blotting analysis
[5] = biological target: Methionine aminopeptidase 2 (Homo sapiens) (UniProt P50579); test: Binding affinity to MetAP2 in fumagillin-pretreated HUVEC at 0.1 uM by Western blotting analysis
[6] = biological target: Methionine aminopeptidase 2 (Homo sapiens) (UniProt P50579); test: Binding affinity to MetAP2 in compound pre-treated HUVEC at 0.1 uM after 48 hrs by Western blotting analysis
[7] = Antiproliferative against human Bel7402 cells assessed as cell viability after 96 hrs by MTT assay; assay type: functional, cell-based; conditions: Bel-7402, 96 h
HepG2 [8] = test: Antiproliferative against human HepG2 cells assessed as cell viability after 96 hrs by MTT assay; assay type: functional, cell-based; conditions: HepG2, 96 h
HepG2 [9] = test: Stability in human HepG2 assessed as compound bound MetAP2 level at 0.1 uM by Western blotting analysis; assay type: ADME, cell-based; conditions: hepg2, 0.1 µM
HUVEC [10] = test: Stability in HUVEC assessed as compound bound MetAP2 level at 0.1 uM by Western blotting analysis; assay type: ADME, cell-based; conditions: human

Chain of Methionine aminopeptidase 2 (Homo sapiens) (P50579 2-478 limits assumed): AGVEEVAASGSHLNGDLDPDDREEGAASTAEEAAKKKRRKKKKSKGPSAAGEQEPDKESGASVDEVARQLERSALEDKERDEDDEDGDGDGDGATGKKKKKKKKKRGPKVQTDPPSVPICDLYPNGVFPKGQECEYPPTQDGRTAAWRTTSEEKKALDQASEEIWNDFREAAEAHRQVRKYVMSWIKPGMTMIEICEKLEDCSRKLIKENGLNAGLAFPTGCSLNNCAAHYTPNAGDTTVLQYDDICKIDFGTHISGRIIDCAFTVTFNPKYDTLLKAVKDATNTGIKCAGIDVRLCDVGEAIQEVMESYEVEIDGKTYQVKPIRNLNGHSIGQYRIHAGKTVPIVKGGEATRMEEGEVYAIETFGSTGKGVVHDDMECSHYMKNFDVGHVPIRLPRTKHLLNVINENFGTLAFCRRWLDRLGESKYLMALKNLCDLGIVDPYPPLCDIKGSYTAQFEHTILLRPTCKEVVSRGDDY

Row | IC50 (HepG2 [8]) [µM] | Stability (HepG2 [9]) | Stability (HUVEC [10]) | SMILES | IC50 (HUVEC [1]) [µM] | inhibition (INH) (A549) [%] | inhibition (INH) [2] [%] | inhibition (INH) (HepG2 [3]) [%] | inhibition (INH) (MCF7) [%] | Activity [4] | Activity [5] | Activity [6] | IC50 [7] [µM]
1 |  |  |  | CO[C@@H]1[C@H](OC(=O)NCCCCCCCCNC(=O)CCCC[C@@H]2SC[C@@H]3NC(=O)N[C@@H]32)CC[C@]2(CO2)[C@H]1[C@@]1(C)O[C@@H]1CC=C(C)C | 0.0098 | <50 | <50 | <50 | <50 | Active | inactive | inactive | 
2 | 0.0202 |  |  | COc1cccc2c1C(=O)c1c(O)c3c(c(O)c1C2=O)C[C@@](O)(C(=O)CO)C[C@@H]3O[C@H]1C[C@H](N)[C@H](O)[C@H](C)O1 [DOXORUBICIN] |  |  |  |  |  |  |  |  | 0.578
3 |  |  |  | CO[C@@H]1[C@H](OC(=O)/C=C/C=C/C=C/C=C/C(=O)O)CC[C@]2(CO2)[C@H]1[C@@]1(C)O[C@@H]1CC=C(C)C [FUMAGILLIN] | 0.0066 | <50 | <50 | <50 | <50 |  |  |  | 
4 |  | Stable | Stable | CO[C@@H]1[C@H](OC(=O)NCCNC(=O)OCCOCCOCCOCCOCCOCCOC(=O)NCCCC[C@@H]2SC[C@@H]3NC(=O)N[C@@H]32)CC[C@]2(CO2)[C@H]1[C@@]1(C)O[C@@H]1CC=C(C)C | 0.06 | <50 | <50 | <50 | <50 |  |  |  | 

— ChEMBL document CHEMBL3232742, “Design, synthesis and evaluation of a cellular stable and detectable biotinylated fumagillin probe and investigation of cell permeability of fumagillin and its analogs to endothelial and cancer cells” (Eur J Med Chem, 2013)
